The source of these data is patent EP2103618A1, “Novel ansamitocin derivatives” (Leibniz Universität Hannover, priority 2008, dated 2009).

≈ marks a conversion by molar mass, not a printed value.

Assay type in all cases: cell-based
Experiment [1] concerns cultured human tumor cell lines. Put plainly: Growth inhibition, statements across the whole panel of cell lines. The conditions noted are these: for activity among the compounds tested: in general, across the cell lines, result in words. Here is the method: (§1) For the detailed evaluation of their biological profile as anti-cancer agents, cultured human tumor cell lines were treated with the new ansamitocin derivatives. In particular, the 19-fluoro-20-demethoxyansamitocin P3 (F-A), 19-chloro-20-demethoxyansamitocin P3 (Cl-A), 19-bromo-20-demethoxyansamitocin P3 (Br-A), and the 20-demethoxy-19-vinylansamitocin P3 (VI) were tested for their inhibitory effect on cell growth of different cell lines, namely KB-3-1, U-937, PC-3, SK-OV-3, A-498, A-431, and A-549, in comparison to natural biosynthesis product Ansamitocin P-3 (AP-3). Growth inhibition was measured in microtiter plates. 60 µl of serial dilutions of the test compounds were added to aliquots of 120 µl of the suspended cells (50000/ml). After 5 days the growth was determined using a MTT assay, except for U-937, where the WST-1 assay from Roche was employed.

The next experiment has as its system A-431. Put plainly: Growth inhibition of cultured human tumor cell lines in microtiter plates, MTT assay. The conditions noted are these: A-431, Epidermoid carcinoma, 5 days; for IC50: Homo sapiens, 120 h, read-out: Antiproliferative activity IC50. Here is the method:
as §1

The next experiment concerns A-498. The description is as above. The conditions noted are these: A-498, Kidney carcinoma, 5 days; for IC50: Homo sapiens, A498, 120 h, read-out: Antiproliferative activity IC50. As to the method: as §1
Another experiment concerns A-549. The experiment is described as above. The note with it: A-549, Lung carcinoma, 5 days; for IC50: Homo sapiens, A549, 120 h, read-out: Antiproliferative activity IC50. As to the method:
as §1

Another experiment deals with KB-3-1. Described as above. The conditions noted are these: KB-3-1, Cervix carcinoma, 5 days; for IC50: Homo sapiens, 120 h, read-out: Antiproliferative activity IC50. Here is the method:
as §1

The test system of another experiment is PC-3. The experiment is described as above. The note with it: PC-3, Prostate carcinoma, 5 days; for IC50: Homo sapiens, 120 h, read-out: Antiproliferative activity IC50. As to the method:
as §1

The subject of another experiment is SK-OV-3. Described as above. The note with it: SK-OV-3, Ovarian carcinoma, 5 days; for IC50: Homo sapiens, 120 h, read-out: Antiproliferative activity IC50. Here is the method: as §1
Another experiment has as its system U-937. Briefly: Growth inhibition of cultured human tumor cell lines in microtiter plates, WST-1 assay. The conditions noted are these: U-937, Lymphoma, 5 days; for IC50: Homo sapiens, 120 h, read-out: Antiproliferative activity IC50. Here is the method:
as §1
On the technique in general: Tetrazolium assays rely on reduction of a dye to a coloured formazan, in cell work by metabolically active cells.

On to “19-fluoro-20-demethoxyansamitocin P3 [F-A]”, for which the “activity among the compounds tested” value in experiment [1] is given as “most active”.
Still for that read-out and setting: the value for 20-demethoxy-19-vinylansamitocin P3 was “most active”.
Usually IC50 stands for the point on the concentration scale where inhibition reaches its midpoint. For the compound `COc1cc2cc(c1Cl)N(C)C(=O)C[C@H](OC(=O)C(C)C)[C@]1(C)O[C@H]1[C@H](C)[C@@H]1C[C@@](O)(NC(=O)O1)[C@H](OC)/C=C/C=C(\C)C2` [AP-3, Ansamitocin P-3, reference compound], the concentration for half-maximal inhibition (IC50) is 0.05 ng/mL (≈ 0.0787 nM) in the experiment on A-431; 1.1 ng/mL (≈ 1.73 nM) with A-498; 0.1 ng/mL (≈ 0.157 nM) with A-549; 0.11 ng/mL (≈ 0.173 nM) in the experiment on KB-3-1; 0.035 ng/mL (≈ 0.0551 nM) in the experiment on PC-3; 0.03 ng/mL (≈ 0.0472 nM) with SK-OV-3. Also, the IC50 in the experiment with U-937 was determined as 0.0035 ng/mL (≈ 0.00551 nM).
As for `CO[C@@H]1/C=C/C=C(\C)Cc2ccc(Br)c(c2)N(C)C(=O)C[C@H](OC(=O)C(C)C)[C@]2(C)O[C@H]2[C@H](C)[C@@H]2C[C@@]1(O)NC(=O)O2` [Br-A, 19-bromo-20-demethoxyansamitocin P3], the “Antiproliferative activity IC50” value in the experiment with A-431 amounted to 0.1 ng/mL; in the experiment with A-498, 4 ng/mL; with A-549, 0.3 ng/mL; with KB-3-1, 0.3 ng/mL; in the experiment with PC-3, 0.1 ng/mL; in the experiment on SK-OV-3, 0.05 ng/mL. In addition, the “Antiproliferative activity IC50” value with U-937 was found to be 0.03 ng/mL.
In the case of `CO[C@@H]1/C=C/C=C(\C)Cc2ccc(Cl)c(c2)N(C)C(=O)C[C@H](OC(=O)C(C)C)[C@]2(C)O[C@H]2[C@H](C)[C@@H]2C[C@@]1(O)NC(=O)O2` [Cl-A, 19-chloro-20-demethoxyansamitocin P3], the IC50 in the experiment on A-431 amounted to 0.15 ng/mL (≈ 0.248 nM); with A-498 it was 3 ng/mL (≈ 4.96 nM); with A-549, 0.4 ng/mL (≈ 0.661 nM); in the experiment on KB-3-1 it was 0.35 ng/mL (≈ 0.578 nM); with PC-3 it was 0.12 ng/mL (≈ 0.198 nM); in the experiment on SK-OV-3 it was 0.1 ng/mL (≈ 0.165 nM). Moreover, in the experiment with U-937, the IC50 amounted to 0.035 ng/mL (≈ 0.0578 nM). Further, in experiment [1], the “activities weaker than that of the natural AP-3” value is recorded as 3-50 times.
For the compound `CO[C@@H]1/C=C/C=C(\C)Cc2ccc(F)c(c2)N(C)C(=O)C[C@H](OC(=O)C(C)C)[C@]2(C)O[C@H]2[C@H](C)[C@@H]2C[C@@]1(O)NC(=O)O2` [F-A, 19-fluoro-20-demethoxyansamitocin P3], the IC50 in the experiment on A-431 was 0.04 ng/mL (≈ 0.0679 nM); in the experiment with A-498 it was 2 ng/mL (≈ 3.4 nM); in the experiment with A-549, 0.11 ng/mL (≈ 0.187 nM); with KB-3-1, 0.18 ng/mL (≈ 0.306 nM); with PC-3, 0.035 ng/mL (≈ 0.0595 nM); with SK-OV-3, 0.035 ng/mL (≈ 0.0595 nM). In the experiment on U-937, the IC50 came to 0.01 ng/mL (≈ 0.017 nM).
